Source: the NIST ThermoML archive (doi:10.1021/je400065j)
± gives the expanded uncertainty stated by the source.

Key:
[1] = Liquid, Closed cell (Static) method
[2] = refractive index (Na D-line) (dimensionless); settings: 293.15 K; 101.33 kPa; Liquid; Standard Abbe refractometry

vapor or sublimation pressure ([1]; 383.3 K) [kPa] | vapor or sublimation pressure ([1]; 413.2 K) [kPa] | refractive index [2] | Compound | vapor or sublimation pressure ([1]; 398.1 K) [kPa] | vapor or sublimation pressure ([1]; 398.2 K) [kPa]
315.6 ± 1.7 | 757 ± 3 | 1.3618 ± 0.0007 | CCO [ethanol] | – | 498.3 ± 2.2
480.7 ± 2.3 | 1086 ± 4.1 | 1.3287 ± 0.0007 | CO [methanol] | 733.7 ± 3.1 | –

Compound | vapor or sublimation pressure ([1]; 383.3 K) [kPa] | vapor or sublimation pressure ([1]; 413.2 K) [kPa] | refractive index [2] | vapor or sublimation pressure ([1]; 398.1 K) [kPa] | vapor or sublimation pressure ([1]; 398.2 K) [kPa]
CCC(C)=O [butanone] | 245.6 ± 1.3 | 506.6 ± 1.9 | 1.3788 ± 0.0007 | 358.5 ± 1.5 | 358.5 ± 1.5
